Data on four compounds can be found in patent publication US4146501A, “Process for isolating and purifying taste bud receptors for screening and evaluating tastants” (priority 1976, dated 1979).

The conditions of assay [1]: cited from earlier work.
In assay [2] the test system is non-taste bud bearing epithelial tissue filtrates and B subfractions [P2,4(B)]. Description: Binding of 14C sugars to non-taste bud bearing epithelial tissue filtrates and B subfractions (control). On the set-up: species or system bovine. The following applies: Epi; for 14C sugar binding: 30 min at 30° C. The protocol:
(§1) The following procedure was utilized in tastant evaluation according to the process of this invention: Protein concentrations were determined by the methods of Lowry et al., (1951) J. Biol. […] According to density, physical appearance as determined by using electron microscopic morphology enzymatic activity and chemical analysis, B subfractions from taste buds and epithelial tissues achieved the greatest membrane purification compared with other subfractions. Among the taste bud B subfractions, P4(B) was morphologically more homogeneous with respect to membranes than P3(B) whereas P2(B) was the least homogeneous of all. Epithelial tissue B subfractions contained mainly fibrous tissue and few differences were found in morphology, density, enzymatic activity or chemical analysis between P2(B) or P4(B) subfractions. Taste bud and epithelial tissue D subfractions contained relatively few membrane fragments compared to the large amount of other cellular organelles present and therefore were not included in these studies. […] Each filtrate and subfraction was washed three times with calcium free, 0.2 M Krebs-Ringer bicarbonate (KRB) pH 7.4, suspended in the same buffer in a final volume of 2 ml and frozen in liquid nitrogen. No detectable change in binding characteristics from suspensions of taste bud or epithelial tissue fractions was observed after storage at -80° for as long as two months. All binding studies were carried out in plastic micro test tubes in a constant temperature shaking bath. For these studies KRB, suspensions of the initial filtrates, subfractions and ^14 C labeled and/or unlabeled sugars were incubated in a final volume of 100 μl. After incubation the tubes were placed in an ice bath, centrifuged, the supernatant aspirated and 10 μl KRB layered on top of the pellet. The KRB was then aspirated, the top of the test tube cut off with a razor blade just above the bellet, placed into 10 ml Aquasol (New England Nuclear Corp., Boston, Mass.) and the radioactivity determined in a liquid scintillation spectrophotometer. Controls, without filtrates or subfractions, were also included. […] The tubes were then placed in an ice bath for 3 minutes, and then centrifuged at 15,000 rpm for 6 min.

In assay [3] the test system is taste bud filtrates and B subfractions [P2,3,4(B)]. The experiment in a line: Binding of 14C sugars to taste bud filtrates and B subfractions. On the set-up: species or system bovine. The note with it: for 14C sugar binding / Relative enrichment of sugar binding compared to the initial filtrate: Bud; for 14C sugar binding: 30 min at 30° C. The protocol:
as §1

Assay [4] relates to taste bud P4(B) subfractions. Description: Specific binding: competition of 14C sugars or SSS with unlabeled homologous and heterologous sugars, Scatchard analysis. The arrangement: species or system bovine. The note with it: for competition of unlabeled sugar with fructose binding / competition of unlabeled sugar with sucrose binding / competition of unlabeled sugar with glucose binding: FIG. 8, in words; for Kd: Scatchard plot, mean ± 1 SEM, read-out: Kd (dissociation constant); for Kd / q (concentration of sugar or SSS bound per mg subfraction protein): single class of sites; for Inhibition (%) of 14C Fructose binding by unlabelled sugar / Inhibition (%) of 14C Glucose binding by unlabelled sugar / Inhibition (%) of 14C Sucrose binding by unlabelled sugar: maximal concentration of unlabelled sugar, range of values; for Relative Binding Inhibition: homologous set at 100; for specific binding (competition of 14C sugar or SSS with homologous unlabeled sugar or SSS): taste bud P4(B), FIG. 7.

For assay [5] the following is noted: behavioral basis, cow; cited from earlier work.
Assay [6] has as its system epithelial P4(B) subfractions. The experiment in a line: Displacement of bound 14C sucrose by unlabeled sucrose (epithelial control). The format is binding, bovine. The protocol: (§2) All binding studies were carried out in plastic micro test tubes in a constant temperature shaking bath. For these studies KRB, suspensions of the initial filtrates, subfractions and ^14 C labeled and/or unlabeled sugars were incubated in a final volume of 100 μl. After incubation the tubes were placed in an ice bath, centrifuged, the supernatant aspirated and 10 μl KRB layered on top of the pellet.
(§3) The KRB was then aspirated, the top of the test tube cut off with a razor blade just above the bellet, placed into 10 ml Aquasol (New England Nuclear Corp., Boston, Mass.) and the radioactivity determined in a liquid scintillation spectrophotometer. Controls, without filtrates or subfractions, were also included. These controls represent background radioactivity composed mainly of ^14 C sugars bound to the walls of the plastic test tubes. This background radioactivity was always found to be less than 1% of the lowest level obtained in any study with added tissue fractions. Calculations of ^14 C sugar binding also included a correction for non-specific binding (i.e., ^14 C sugar binding not inhibited by an excess of the unlabeled homologous sugar, which occurred when tissue suspensions were used. This value (40%) was the mean calculated from the results of 56 duplicate experiments. […]

The test system of assay [7] is taste bud subfraction P4(B). Description: Time and temperature effects on 14C sucrose binding. The note with it: 26 μM 14C sucrose. On the set-up: species or system bovine. The protocol:
as §2, §3

Assay [8] concerns taste bud P4(B) subfractions. Description: Displacement of bound 14C sucrose by unlabeled sucrose. The format is binding, bovine. The following applies: after addition of unlabeled sucrose (0.01-1 mM), FIG. 5; 20 min. The protocol:
as §2, §3

For assay [9], the system named is epithelial tissue P4(B) subfractions. Description: Specific binding: competition of 14C sugars or SSS with unlabeled homologous sugars (epithelial control). The note with it: FIG. 7. On the set-up: species or system bovine. The protocol:
as §2, with “pellet. The KRB was then aspirated, the top of the test tube cut off with a razor blade just above the bellet, placed into 10 ml Aquasol (New England Nuclear Corp., Boston, Mass.) and the radioactivity determined in a liquid scintillation spectrophotometer. Controls, without filtrates or subfractions, were also included.” for “pellet.”

[10] abbreviates: Filtrate, 14C glucose 200 μM, fructose 400 μM, sucrose 26 μM.
Setting [11] is: section FRUCTOSE (as the 14C sugar per footnote) with each unlabelled sugar.
Setting [12] is: section SUCROSE (as the 14C sugar per footnote) with each unlabelled sugar.

Molecules are shown by their SMILES. “Also recorded” adds a separate entry of the source. Some results are limits rather than exact numbers.

Regarding `OC[C@H]1OC(O)[C@H](O)[C@@H](O)[C@@H]1O` (some centres unmarked) [Glucose, glucose], the “Recognition thresholds in man” value in assay [1] was 0.01 to 0.03 M. Besides, the 14C sugar binding is 22000 cpm/mg protein in assay [2] (setting [10]); 29000 cpm/mg protein in assay [2] (P2(B)); 17000 cpm/mg protein in assay [2] (P4(B)); 37000 cpm/mg protein in [3] (setting [10]); 120000 cpm/mg protein in [3] (P2(B)); 360000 cpm/mg protein in [3] (P3(B)). The compound further had a 14C sugar binding in [3] (P4(B)) of 348000 cpm/mg protein. Also, the “Relative enrichment of sugar binding compared to the initial filtrate” value (from here on “Relative enrichment of sugar binding”) came out at 1.3 in assay [2] (P2(B)); 0.8 in assay [2] (P4(B)); 3.2 in [3] (P2(B)); 9.7 in [3] (P3(B)); 9.4 in assay [3] (P4(B)). For the same compound, in assay [4], the “competition of unlabeled sugar with fructose binding” value is “did not compete”. Besides, the “competition of unlabeled sugar with sucrose binding” value in assay [4] is on record as “did not compete”. The Kd in [4] amounted to 3.4 ± 1.1 mM. For the same compound, the “Inhibition (%) of 14C Fructose binding by unlabelled sugar” value (shortened to “Inhibition (%) of 14C Fructose binding”) in assay [4] is recorded as 14-20%. In addition, the entries for the “Inhibition (%) of 14C Glucose binding by unlabelled sugar” value (shortened to “Inhibition (%) of 14C Glucose binding”) in assay [4] and in assay [4] (listed as glucose) were 70-80% and “eighty”, respectively. The “Inhibition (%) of 14C Sucrose binding by unlabelled sugar” value (shortened to “Inhibition (%) of 14C Sucrose binding”) in assay [4] is given as 14-20%. Also, the “Relative Binding Inhibition” value was found to be 51% in assay [4] (setting [11]), 100% in [4] (section GLUCOSE (as the 14C sugar per footnote) with each unlabelled sugar) and 32% in [4] (setting [12]). For the same compound, in assay [4], the “q (concentration of sugar or SSS bound per mg subfraction protein)” value is reported as 2.5 ± 0.5 mM/mg protein. In addition, the “specific binding (competition of 14C sugar or SSS with homologous unlabeled sugar or SSS)” value in assay [4] was “occurred”.
As to `OC[C@H]1O[C@@](CO)(O[C@H]2O[C@H](CO)[C@@H](O)[C@H](O)[C@H]2O)[C@@H](O)[C@@H]1O` [Sucrose, sucrose], the “Recognition thresholds in man” value in assay [1] was 0.01 to 0.03 M. Moreover, the “detection thresholds in normal man” value in assay [1] (reported as low as) is ≥ 5 mM. Also, the bovine discrimination thresholds in assay [5] is recorded as 0.03 M. Also, the 14C sugar binding in assay [2] (setting [10]) was 33000 cpm/mg protein. Also, in assay [2] (P2(B)), the “Relative enrichment of sugar binding” value is given as 1.1 and the 14C sugar binding was 37000 cpm/mg protein. In assay [2] (P4(B)), the “Relative enrichment of sugar binding” value was 0.5 and the 14C sugar binding turned out to be 18000 cpm/mg protein. For the same compound, the “reversal of 14C sucrose binding by excess unlabeled sucrose” value in assay [6] is “could not be reversed”. Further, the 14C sugar binding in [3] (setting [10]) amounted to 36000 cpm/mg protein. Also, in [3] (P2(B)), the “Relative enrichment of sugar binding” value is listed as 3.1 and the 14C sugar binding came to 113000 cpm/mg protein. In assay [3] (P3(B)), the “Relative enrichment of sugar binding” value is on record as 7.0 and the 14C sugar binding turned out to be 255000 cpm/mg protein. Further, in assay [3] (P4(B)), the “Relative enrichment of sugar binding” value is 23.8 and the 14C sugar binding worked out at 868000 cpm/mg protein. Besides, the “increase in sugar binding compared to the initial filtrate” value in assay [3] (taste bud subfraction P3(B)) worked out at 7 fold. The “increase in sugar binding compared to the initial filtrate” value in assay [3] (taste bud subfraction P4(B)) was 24 fold. Also, in [7] (FIG. 3), the “increase of sucrose binding activity following increase in incubation temperature from 0° C. to 30° C.” value is recorded as “four”. The “time to plateau of 14C sucrose binding” value in assay [7] (at 30° C.) was “about 25 min”. In assay [4], the “competition of unlabeled sugar with fructose binding” value is “competed with both glucose and fructose”; the “competition of unlabeled sugar with glucose binding” value is “competed with both glucose and fructose”; the Kd is 1.1 ± 0.4 mM; the “Inhibition (%) of 14C Fructose binding” value is 50-60%. Besides, in assay [4], the “Inhibition (%) of 14C Glucose binding” value is recorded as 60-65%, the “Inhibition (%) of 14C Sucrose binding” value was 70-80%, the “q (concentration of sugar or SSS bound per mg subfraction protein)” value was determined as 51 ± 8 mM/mg protein and the “specific binding (competition of 14C sugar or SSS with homologous unlabeled sugar or SSS)” value is “occurred”. The “Inhibition (%) of 14C Sucrose binding” value in [4] (listed as sucrose) is on record as “about 80%”. For the same compound, the “Relative Binding Inhibition” value in assay [4] (setting [12]) stood at 100%. In addition, the “maximum displacement of the 14C sucrose initially bound” value in assay [8] is given as “about 80%”.
On to `OC[C@H]1O[C@@H](O[C@H]2[C@H](O)[C@@H](O)C(O)O[C@@H]2CO)[C@H](O)[C@@H](O)[C@H]1O` (some centres unmarked) [lactose], for which the “specific binding (competition of 14C sugar or SSS with homologous unlabeled sugar or SSS)” value in assay [9] and in assay [4] was “did not compete; also recorded: did not bind specifically” throughout.
Turning to `O=C(CO)[C@@H](O)[C@H](O)[C@H](O)CO` [Fructose, fructose], the “Recognition thresholds in man” value in assay [1] is 0.01 to 0.03 M. In assay [5], the bovine discrimination thresholds is 0.06 M. In assay [2] (setting [10]), this compound had a 14C sugar binding of 88000 cpm/mg protein. In [2] (P2(B)), the “Relative enrichment of sugar binding” value was 1.1 and the 14C sugar binding is 95000 cpm/mg protein. For the same compound, in assay [2] (P4(B)), the “Relative enrichment of sugar binding” value amounted to 0.9 and the 14C sugar binding was determined as 78000 cpm/mg protein. Also, in assay [3] (setting [10]), the 14C sugar binding is 153000 cpm/mg protein. In assay [3] (P2(B)), the “Relative enrichment of sugar binding” value was determined as 3.7 and the 14C sugar binding came out at 569000 cpm/mg protein. For the same compound, in [3] (P3(B)), the “Relative enrichment of sugar binding” value is 8.5 and the 14C sugar binding was 1.3e+06 cpm/mg protein. In assay [3] (P4(B)), the “Relative enrichment of sugar binding” value is reported as 17.8 and the 14C sugar binding worked out at 2.72e+06 cpm/mg protein. Also, in [4], the “competition of unlabeled sugar with glucose binding” value is “competed with glucose”, the “competition of unlabeled sugar with sucrose binding” value is “did not”, the Kd is 1.8 ± 0.9 mM and the “Inhibition (%) of 14C Fructose binding” value was 70-80%. Also, in assay [4], the “Inhibition (%) of 14C Glucose binding” value is 36-40%, the “Inhibition (%) of 14C Sucrose binding” value is 14-20%, the “q (concentration of sugar or SSS bound per mg subfraction protein)” value came to 10.5 ± 1.2 mM/mg protein and the “specific binding (competition of 14C sugar or SSS with homologous unlabeled sugar or SSS)” value is “occurred”. Moreover, the “Inhibition (%) of 14C Fructose binding” value in [4] (listed as fructose) is given as “about 80%”. For the same compound, the “Relative Binding Inhibition” value in [4] (setting [11]) is 100%. Moreover, the “Relative Binding Inhibition” value in assay [4] (setting [12]) is 59%.

One may read the Kd as the concentration at which binding is half-saturated.
